Active and inactive are the calls of the source.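 Rule for the calls: active = AC50, the dose giving half-maximal effect, exceeds a fixed cutoff for a compound that rescues yeast growth under heat; inactive = the rest, inconclusive results apart.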
Test system: S. cerevisiae Burl-1 ts mutant growth, BacTiter-Glo, 38.5C 24 h
Assay: restored growth of temperature-sensitive Burl-1 yeast – whole organism, S. cerevisiae, Burl-1 ts mutant, luminescence, counter-screen for SUMOylation pathway inhibitor project, dose response (AID 463199)

CCOc1cc(C(=S)N2CCOCC2)ccc1OC(=O)c1ccc(C)cc1
AC50: > 42 µM (inactive)

Cc1c(C(=O)N2CCCC2)c(S(=O)(=O)Nc2cccc(Br)c2)c(C)n1C
AC50: > 42 µM (inactive)

O=C(OCC(=O)N1CCN(c2ccccc2)CC1)c1nc(Cl)ccc1Cl
AC50: > 42 µM (inactive)

CCCCCCCN1C(Nc2ccccc2)=NC[C@@H]1CC(C)C
AC50: > 21 µM (inactive)

CN(Cc1cccnc1)Cc1cn[nH]c1-c1ccc(-c2ccccc2)cc1
AC50: > 42 µM (inactive)

COC(=O)[C@@H]1C[C@@H]2CC[C@@H](O)C[C@@H]2N1Cc1ccc(N2CCN(C)CC2)cc1
AC50: > 42 µM (inactive)

CC(=O)c1ccc2noc(-c3ccc(F)cc3)c2c1
AC50: > 42 µM (inactive)

COc1ccc(OCC(=O)O/N=C(\N)Cc2ccc(Cl)cc2)cc1
AC50: > 42 µM (inactive)

CCN(C(=O)COC(=O)c1cc([N+](=O)[O-])ccc1N1CCOCC1)C1CCCCC1
AC50: > 42 µM (inactive)

COc1ccc(C)cc1NC(=O)Cn1c(=O)oc2ccccc21
AC50: > 42 µM (inactive)

CCNC(=O)C1CC(=O)N(Cc2ccc3c(c2)OCO3)C(=Nc2ccc(F)cc2)S1 (configuration not stated)
AC50: > 42 µM (inactive)

Cc1csc(CNc2ncnc3ccc(-c4ccccc4Cl)cc23)c1
AC50: > 42 µM (inactive)

COC(=O)/C=C\C(=O)Nc1cccc([N+](=O)[O-])c1
AC50: > 42 µM (inactive)

CCOc1ccc(Cl)cc1S(=O)(=O)N1CCC(C(=O)NCc2cccnc2)CC1
AC50: > 42 µM (inactive)

CCCCSCCCNC(=O)Nc1cccc(OC)c1
AC50: > 42 µM (inactive)

O=C(COc1ccc(F)cc1Cl)N(Cc1nnc(-c2ccccc2Cl)o1)C1CC1
AC50: > 42 µM (inactive)

Cc1ccc(C)c(NC(NC(=O)c2ccccn2)C(Cl)(Cl)Cl)c1 (configuration not stated)
AC50: > 42 µM (inactive)

CC(C)CNc1cc(=O)n(C)c(=O)n1C
AC50: > 42 µM (inactive)

CC1CCCC(N2C(=O)NC(NC(=O)c3ccco3)(C(F)(F)F)C2=O)C1C (configuration not stated)
AC50: > 42 µM (inactive)

CC1=NC2(CCCc3c2no[n+]3[O-])N(O)C1(C)C (configuration not stated)
AC50: > 42 µM (inactive)

O=C1CSC(c2ccc(F)c(F)c2)N1c1ccccc1F (configuration not stated)
AC50: > 42 µM (inactive)

COc1ccccc1CNC(=O)C1CCC(CNS(=O)(=O)c2ccc(C)cc2)CC1 (configuration not stated)
AC50: > 42 µM (inactive)

O=C(c1ccc2c(=O)n(Cc3ccccc3Cl)c(=S)[nH]c2c1)N1CCOCC1
AC50: > 42 µM (inactive)

CC(C)(C)NC(=O)C(c1cccs1)N(Cc1cccs1)C(=O)c1ccc(CN2CCOCC2)o1 (configuration not stated)
AC50: > 42 µM (inactive)

Nc1ccc(Oc2ccccc2-c2ccccc2)cc1
AC50: > 42 µM (inactive)

C=CCn1c(CCC)nc2ccccc21
AC50: > 42 µM (inactive)

CC(N=C(NC#N)Nc1ccncc1)C(C)(C)C (configuration not stated)
AC50: > 42 µM (inactive)

COc1ccc(OC)c(NC(=O)CNC(=O)Cn2ccc3ccccc3c2=O)c1
AC50: > 42 µM (inactive)

N#Cc1ccc2[nH]c(CO)c(-c3ccccc3)c2c1
AC50: > 42 µM (inactive)

CCn1c(=O)n(CC)c2cc(NC(=O)c3ccccc3Cl)ccc21
AC50: > 42 µM (inactive)

COC(=O)Nc1ccc(S(=O)(=O)N2CCCC(C(=O)NC3CCS(=O)(=O)C3)C2)cc1 (configuration not stated)
AC50: > 42 µM (inactive)

COC(=O)C1C2C=CC3(CN(CCc4ccccc4)C(=O)C13)O2 (configuration not stated)
AC50: > 21 µM (inactive)

O=C(CCc1nc2sc3c(c2c(=O)[nH]1)CCCC3)N1CCN(c2ccccc2)CC1
AC50: > 42 µM (inactive)

O=C(COc1ccc([N+](=O)[O-])cc1)Nc1ccc(C(=O)NCc2cccnc2)cc1
AC50: > 42 µM (inactive)

O=C(N/N=C/c1cccs1)c1cncc(Br)c1
AC50: > 42 µM (inactive)

CCCCc1n[nH]c(=S)n1Cc1ccc(C)cc1
AC50: > 42 µM (inactive)

Cc1ccc(-c2cc(C(=O)O)c3ccccc3n2)s1
AC50: > 42 µM (inactive)

COc1ccccc1CC(=O)N1CCN(S(=O)(=O)c2ccccc2)CC1
AC50: > 42 µM (inactive)

COC(=O)c1ccncc1C(=O)Nc1ccc(Oc2ncc(C(F)(F)F)cc2Cl)cc1
AC50: > 42 µM (inactive)

COc1ccc(Cl)cc1C(=O)NCCc1ccc(S(=O)(=O)NC(=O)NC2CCCCC2)cc1
AC50: > 42 µM (inactive)

Cc1cc(C)cc(-n2ncc3c2CCCC3NC(=O)c2cc(C)[nH]n2)c1 (configuration not stated)
AC50: > 42 µM (inactive)

Cc1c(NP(=O)(c2ccc(Br)cc2)c2ccc(Br)cc2)c(=O)n(-c2ccccc2)n1C
AC50: > 42 µM (inactive)

Cc1c(C(=O)N2CCOCC2)c(S(=O)(=O)Nc2cccc(Br)c2)c(C)n1C
AC50: > 42 µM (inactive)

O=C(CCC(=O)OC(C(=O)c1ccccc1)c1ccccc1)Nc1ccccc1 (configuration not stated)
AC50: > 21 µM (inactive)

O=C(CSc1nc(-c2ccccc2)nc2ccc(F)cc12)Nc1cccc(C(=O)O)c1
AC50: > 42 µM (inactive)

O=C(Cc1ccc(Cl)cc1)NC(=S)Nc1ccccc1N1CCOCC1
AC50: > 42 µM (inactive)

CS(=O)(=O)C1=NSC2=NC(=O)/C(=C\c3ccc(OS(=O)(=O)c4ccccc4)cc3)C(=N)N21
AC50: > 42 µM (inactive)

C=CCNC(=O)NC(=O)COC(=O)/C(C#N)=C/c1cc(C)n(CC(C)C)c1C
AC50: > 42 µM (inactive)

Cc1sc(NC(=O)CSC2=NCCS2)nc1-c1ccccc1
AC50: > 42 µM (inactive)

Cc1cc(=O)oc(C)c1C(=O)Nc1ccc(Cl)cn1
AC50: > 42 µM (inactive)

CC1(C)Cc2c(cnn2-c2ccc(F)cc2)C(NC(=O)CCCN2CCCCC2=O)C1 (configuration not stated)
AC50: > 42 µM (inactive)

COc1ccc(N2CC(C(=O)N3CCc4ccccc43)CC2=O)cc1 (configuration not stated)
AC50: > 42 µM (inactive)

CCS(=O)(=O)N1CCC(C(=O)N2CCc3ccccc3C2)CC1
AC50: > 42 µM (inactive)

Cc1ccc2c(c1)C(=O)N1[C@H]3c4ccccc4OC[C@@H]3[C@H](c3ccccc3)[C@]1(C)C(=O)N2
AC50: > 42 µM (inactive)

COc1ccc(NC(=O)CSc2nccc(C)n2)cc1
AC50: > 42 µM (inactive)

N#CC1=C(N)OC2=C(C(=O)CCC2)C1C1CC=CCC1 (configuration not stated)
AC50: > 42 µM (inactive)

Cc1ccc(N/C=C(\C#N)c2ccc(OCCCF)cc2)cc1
AC50: > 42 µM (inactive)

CCCCC1=CC2=CC(=O)C(C)(OC(=O)CC)C(=O)C2=CN1CCCOC(C)C (configuration not stated)
AC50: > 42 µM (inactive)

COc1ccc2c(c1)[C@H]1[C@H](CO2)[C@H](c2ccccc2)[C@]2(C)C(=O)Nc3ccc(F)cc3C(=O)N12
AC50: > 42 µM (inactive)

CCN(Cc1ccccc1)Cc1ccc(OCc2ccccc2)c(OC)c1
AC50: > 42 µM (inactive)

COC(=O)CNC(=O)CSc1ccccn1
AC50: > 42 µM (inactive)

O=C(Cn1sc2ccccc2c1=O)NC12CC3CC(CC(C3)C1)C2
AC50: > 42 µM (inactive)

CC(=O)c1ccc(Nc2cc(C)nc3ccccc23)cc1
AC50: > 42 µM (inactive)

COc1ccc(C(=O)OCC(=O)c2ccccc2)cc1S(=O)(=O)N1CCOCC1
AC50: > 42 µM (inactive)

COc1ccc(/C=N\NC(=O)c2cc(OCC(F)(F)F)ccc2OCC(F)(F)F)cc1
AC50: > 42 µM (inactive)

O=C(CSc1nc(=O)n2ccccc2n1)N1CCN(c2ccccc2)CC1
AC50: > 42 µM (inactive)

Fc1cccc(Cl)c1CSc1nnc(CN2CCOCC2)n1-c1ccccc1
AC50: > 42 µM (inactive)

CC1CN(Cc2ccccc2)c2nc3c(c(=O)[nH]c(=O)n3C)n2C1 (configuration not stated)
AC50: > 42 µM (inactive)

CC(=O)N1N=C(c2ccc(C(C)(C)C)cc2)OC1(C)C
AC50: > 42 µM (inactive)

Cc1cc(C)cc(NC(=O)C2CCCN(S(=O)(=O)c3ccc4[nH]c(=O)ccc4c3)C2)c1 (configuration not stated)
AC50: > 42 µM (inactive)

NC(=O)CC(NC(=O)Cc1cccc2ccccc12)c1ccc(NCCCN2CCCC2=O)c([N+](=O)[O-])c1 (configuration not stated)
AC50: > 42 µM (inactive)

O=C(COc1ccc(-n2cnnn2)cc1)NCCc1ccc(F)cc1
AC50: > 42 µM (inactive)

CS(=O)(=O)N(CC(=O)N1CCN(c2ccccc2F)CC1)C1CCCCC1
AC50: > 42 µM (inactive)

CCCc1ccccc1OCCNC(C)=O
AC50: > 42 µM (inactive)

Clc1ccc(CONc2ncnc3nonc23)c(Cl)c1
AC50: 9.28 µM

COc1cc(S(=O)(=O)NC2CCCC2)c(OC)cc1C
AC50: > 42 µM (inactive)

Cc1ccc(-c2nnc(SCC#N)n2N)cc1
AC50: > 42 µM (inactive)

COc1cc(/C=N/NC(=O)c2cccnc2)ccc1OCC(=O)N1CCOCC1
AC50: > 42 µM (inactive)

COC(=O)c1ccc(CSc2nc3ccccc3c(=O)n2CC(C)C)o1
AC50: > 42 µM (inactive)

Cc1cc(C(=O)N/N=C/c2ccc3c(c2)OCO3)c2ccccc2n1
AC50: > 42 µM (inactive)

CC(C)c1ccc(NC(=O)COc2nnc(-c3cccs3)c(-c3cccs3)n2)cc1
AC50: > 42 µM (inactive)

CC(C)[N+]1(C)[C@@H]2CC[C@@H]1CC(OC(=O)C(CO)c1ccccc1)C2 (some centres not stated)
AC50: > 42 µM (inactive)

C=C1C2C[C@@]3([C@@H]1O)[C@@H](C[C@@H]2O)[C@@]12C4[C@@H]3C[C@@H]1[C@@](C)(CC[C@@H]2O)CN4CC
AC50: > 42 µM (inactive)

COc1ccc(S(=O)(=O)Nc2ccc(NC(C)=O)cc2)cc1OC
AC50: > 42 µM (inactive)

O=C(CCc1ccccc1)N1CCN(c2ccccc2F)CC1
AC50: > 42 µM (inactive)

C=CCn1cc(C(C)=O)c(=O)[nH]c1=O
AC50: > 42 µM (inactive)

Cc1ccc2c(c1)N(CC(=O)NCC1CCCO1)C(=O)C(C)O2 (configuration not stated)
AC50: > 42 µM (inactive)

Cc1ccc(NC(=O)COC(=O)c2csc3c2CCC(C)C3)cc1S(=O)(=O)N1CCCCC1 (configuration not stated)
AC50: > 42 µM (inactive)

N#Cc1ccc(C23CC4(C2)[C@H](CN(Cc2ccc(C(F)(F)F)cc2)[C@@H]4c2ccccc2)C3c2ccc(C(F)(F)F)cc2)cc1 (some centres not stated)
AC50: > 42 µM (inactive)

NC(=O)c1cccc2cc3ccccc3cc12
AC50: > 42 µM (inactive)

Cc1ccc(S(=O)(=O)N2CCN(C(=O)CSc3nc(N)cc(=O)[nH]3)CC2)c(C)c1
AC50: > 42 µM (inactive)

CCCOC(=O)c1ccc(O)c(OC)c1
AC50: > 42 µM (inactive)

Cc1ccc2c(C)c(C(=O)N(C)C(C)c3ccncn3)oc2c1C (configuration not stated)
AC50: > 42 µM (inactive)

CCC(C)NCCCCOc1cc(C)cc(C(C)C)c1 (configuration not stated)
AC50: > 42 µM (inactive)

Cc1ccc(CNC(=O)c2ccc(N3CCC4(CC3)CC(c3ccccc3)=NO4)c(NC(=O)c3cccc(C)c3)c2)cc1
AC50: > 42 µM (inactive)

O=C1CCCN1CCC(=O)N1CCCC(N2CCN(c3ccccc3F)CC2)C1 (configuration not stated)
AC50: > 42 µM (inactive)

CN(CC(=O)Nc1sccc1C#N)Cc1ccccc1
AC50: > 42 µM (inactive)

Source: PubChem BioAssay AID463199 (Broad Institute, 2010)
